{"source": "patent US20230068020A1", "about": "“MACROLIDE COMPOUND AND ITS USE OF TREATMENT CHRONIC RESPIRATORY DISEASE” (priority 2020, published 2023)", "key": {"[1]": {"conditions": "male, Sprague-Dawley, rat, in vivo, po, 100 mg/kg", "method": "(§4) In another study, a single intravenous dose of two compounds was given to rats (N=3) at 30 mg/ml dosage following administration through the lateral tail vein in order to obtain the absolute oral bioavailability and clearance parameters. Compounds (10 mg/mL) was dissolved in 30% DMSO for IV injection and suspended in 0.5% CMC-Na for IG respectively."}, "[2]": {"assay": "in vivo", "conditions": "Sprague-Dawley, rat", "method": "as §4"}, "[3]": {"test_system": "Staphylococcus aureus ATCC 29213", "assay": "Antibacterial activity, agar dilution MIC", "format": "cell-based", "conditions": "ATCC29213, 20-24 hrs incubation, read-out: minimum inhibitory concentration MIC", "description": "(§1) The antibacterial activity of Erythromycin and compounds of examples were evaluated by the agar dilution method, following the guidelines of the CLSI. […] Briefly, bacteria were grown overnight in adapted media (MHIIA with 5% of sheep blood for Streptococcus pneumoniae and Haemophilus influenzae, and MHIIA for the other bacteria strains) at 35° C., 5% CO2.\n(§2) Cultures were centrifuged at 3000×g for 15 min. Pellets were diluted with 5 mls cold PBS and the OD600nm was adjusted to 10^8 CFU.mL^−1 with a spectrometer. Bacteria were then added to 96-well test plates. Compounds were diluted in DMSO in a 2 fold steps from 20 mg/ml in DMSO in 96 well plated and transferred to the test plate. During the incubation, the plate was maintained at 35° C., 5% CO2.\n(§3) The MICs for Erythromycin and compounds of examples were determined after 20-24 hrs incubation."}, "[4]": {"test_system": "Haemophilus influenzae ATCC 49247", "assay": "Antibacterial activity, agar dilution MIC", "format": "cell-based", "conditions": "ATCC49247, 20-24 hrs incubation, read-out: minimum inhibitory concentration MIC", "description": "as §1, §2, §3"}, "[5]": {"test_system": "Enterococcus faecalis ATCC 29212", "assay": "Antibacterial activity, agar dilution MIC", "format": "cell-based", "conditions": "ATCC29212, 20-24 hrs incubation, read-out: minimum inhibitory concentration MIC", "description": "as §1, §2, §3"}, "[6]": {"test_system": "Acinetobacter baumanii ATCC 17978", "assay": "Antibacterial activity, agar dilution MIC", "format": "cell-based", "conditions": "Acinetobacter baumannii, ATCC17978, 20-24 hrs incubation, read-out: minimum inhibitory concentration MIC", "description": "as §1, §2, §3"}, "[7]": {"test_system": "Acinetobacter baumannii ATCC-BAA-1605", "assay": "Antibacterial activity, agar dilution MIC", "format": "cell-based", "conditions": "ATCCBAA1605, 20-24 hrs incubation, read-out: minimum inhibitory concentration MIC", "description": "as §1, §2, §3"}, "[8]": {"test_system": "Staphylococcus aureus NRS 384", "assay": "Antibacterial activity, agar dilution MIC", "format": "cell-based", "conditions": "NRS384, 20-24 hrs incubation, read-out: minimum inhibitory concentration MIC", "description": "as §1, §2, §3"}, "[9]": {"test_system": "Moraxella catarrhalis ATCC 43617", "assay": "Antibacterial activity, agar dilution MIC", "format": "cell-based", "conditions": "ATCC43617, 20-24 hrs incubation, read-out: minimum inhibitory concentration MIC", "description": "as §1, §2, §3"}, "[10]": {"test_system": "Streptococcus pneumoniae ATCC 6301", "assay": "Antibacterial activity, agar dilution MIC", "format": "cell-based", "conditions": "ATCC6301, 20-24 hrs incubation, read-out: minimum inhibitory concentration MIC", "description": "as §1, §2, §3"}, "[11]": {"test_system": "Streptococcus pneumoniae ATCC 49619", "assay": "Antibacterial activity, agar dilution MIC", "format": "cell-based", "conditions": "ATCC49619, 20-24 hrs incubation, read-out: minimum inhibitory concentration MIC", "description": "as §1, §2, §3"}, "[12]": {"test_system": "Streptococcus pyogenes ATCC BAA-572", "assay": "Antibacterial activity, agar dilution MIC", "format": "cell-based", "conditions": "ATCCBAA572, 20-24 hrs incubation, read-out: minimum inhibitory concentration MIC", "description": "as §1, §2, §3"}, "[13]": {"test_system": "smoke induced COPD mice model", "assay": "Smoke induced COPD mice model", "format": "in vivo, C57BL/6 J mice", "description": "The commercial non-filtered cigarettes containing 11 mg tar and 0.9 mg nicotine per cigarette were used in this study. Eight-week-old male C57BL/6 J mice (purchased from Shanghai Xipuer Yibikai animal Co) were divided into four groups as follows: Group 1 was the control group(NS6m), Group 2 was the animal model CS group(CS6m), Groups 3 was CS+Compound A 100 mpk group(LY100), Group 4 was CS+erythromycin group(EM100). Mice were placed in a Plexiglass chamber covered by a disposable filter. The animals received CS of 5 cigarettes/time, carried out twice per day and 5 days a week for 24 weeks. Mainstream CS was generated by an exposure system in which combustion of the cigarette was drawn into the mouse chambers via a peristaltic pump. In group 3 and 4, mice were orally administrated with Compound A (100 mg/kg) twice per day from the 12th week to 24th week. One week after the last CS exposure, animals were sacrificed by intraperitoneal injection of 10% chloral hydrate for the plasma, bronchoalveolar lavage fluid (BALF) and lung tissues collection.\nThe lung tissues were collected and inflated with 4% paraformaldehyde at a pressure of 25 cmH2O, fixed for 24 h in formalin, embedded with paraffin, sectioned in the sagittal plane, and stained with hematoxylin and eosin (H & E). Alveolus enlargement was quantified by measurement of the mean chord length of alveoli with Analysis software Image J (see FIGS. 5 & 6).\nFor the bronchoalveolar lavage fluid collection, lungs were lavaged with 1 ml of saline, and the resulting BALF was centrifuged at 3000 g for 15 minutes. Cells were washed three times and then analyzed on a ThermoFisher Countess II cytometer."}}, "data": [{"smiles": "CC[C@H]1OC(=O)[C@H](C)[C@@H](O[C@H]2C[C@@](C)(OC)[C@@H](O)[C@H](C)O2)[C@H](C)[C@@H](O[C@@H]2O[C@H](C)C[C@H](N(C)C)[C@H]2O)[C@](C)(O)C[C@@H](C)C(=O)[C@H](C)[C@@H](O)[C@]1(C)O", "note": "[Erythromycin, reference compound]", "values": [{"measurement": "F", "setting": "[1]", "value": 21.8, "unit": "%"}, {"measurement": "clearance", "setting": "[2]; iv", "value": 50.2, "unit": "mL/min/kg"}, {"measurement": "AUC(0-inf)", "setting": "[2]; male, po, 100 mg/kg", "value": 7250, "unit": "ng·h/mL"}, {"measurement": "AUC(0-t)", "setting": "[2]; male, po, 100 mg/kg", "value": 7240, "unit": "ng·h/mL"}, {"measurement": "Cmax", "setting": "[2]; male, po, 100 mg/kg", "value": 2530, "unit": "ng/mL"}, {"measurement": "Tmax", "setting": "[2]; male, po, 100 mg/kg", "value": 2, "unit": "h"}, {"measurement": "half-life", "setting": "[2]; male, po, 100 mg/kg", "value": 0.93, "unit": "h"}, {"measurement": "MIC", "setting": "[3]", "value": 0.5, "unit": "µg/mL"}, {"measurement": "MIC", "setting": "[4]", "value": 16, "unit": "µg/mL"}, {"measurement": "MIC", "setting": "[5]", "value": 1, "unit": "µg/mL"}, {"measurement": "MIC", "setting": "[6]", "value": 64, "unit": "µg/mL"}, {"measurement": "MIC", "setting": "[7]", "value": 16, "unit": "µg/mL"}, {"measurement": "MIC", "setting": "[8]", "value": 64, "unit": "µg/mL"}, {"measurement": "MIC", "setting": "[9]", "value": 2, "unit": "µg/mL"}, {"measurement": "MIC", "setting": "[10]", "value": "< 0.125", "unit": "µg/mL"}, {"measurement": "MIC", "setting": "[11]", "value": "< 0.125", "unit": "µg/mL"}, {"measurement": "MIC", "setting": "[12]", "value": "< 0.125", "unit": "µg/mL"}, {"measurement": "inflammatory cell infiltration and enlargement of alveolus (lung histology)", "setting": "[13]; 100 mg/kg orally twice per day, 12th to 24th week, vs CS group", "value": "significantly attenuated"}, {"measurement": "total cell count and number of macrophages and neutrophils in BALF", "setting": "[13]; 100 mg/kg orally twice per day, compared to the smoking group", "value": "significantly lower"}, {"measurement": "airway resistance and total lung capacity", "setting": "[13]; oral administration of 100 mg/kg, 24 weeks smoke exposure", "value": "reduced two parameters and partially recovered lung function"}]}]}
